Assay results reported in patent US5965701A, “Kappa receptor opioid peptides” (priority 1997, dated 1999).
Where a SMILES comes first, the peptide text is derived from it. [ ]: non-standard residue; d: D form. dNle = CCCC[C@@H](N)C(=O)O

Tests used:
[1] = biological target: T1, cloned human mu opioid (hMOR) receptor (Homo sapiens, UniProt P35372); assay: Competition binding at cloned hMOR, displacement of 3H-DAMGO; details: hMOR stably expressed in HN.9.10 cells, read-out: Ki MOR
T1 construct: expressed in transfected cells; host or cells: HN9.10 (mouse hippocampal neuroblastoma), stably transfected

[2] = biological target: T2, cloned human kappa (hKOR) receptor (Homo sapiens, UniProt P41145); assay: biochemical; assay type: binding; details: for μ/κ Ratio (binding affinity for KOR versus MOR): Ki MOR / Ki KOR
T2 construct: expressed in transfected cells; host or cells: HN9.10 (mouse hippocampal neuroblastoma), stably transfected

conscious male ICR mice = assay: Mouse acetic acid writhing test (WT); assay type: in vivo; details: for WT-ED50: i.v., 5 minutes before acetic acid i.p., writhes over 15 minutes
Method: Selected peptides that are identified in Tables A-G have been further specifically subjected to in vivo testing for determination of duration of action of their opioid properties, and the results are reported in Table H hereinafter. The peptide numbers correspond to those in the earlier tables and the figures with regard to μ/K ratio are simply carried over for reference purposes. The in vivo testing is carried out using a mouse writhing test (WT) that is well-suited for determining the length of duration of antinociceptive biological activity. This test is described in detail in an article by G. A. Bentley et al., Br. J. Phamac., 73:325-332, 1981, and it employs conscious male ICR mice which are purchased from Harlan and which weigh between 20 and 30 grams. The mice are fasted for 12 to 16 hours prior to beginning the test. The nociceptive behavior, i.e. writhing, to be monitored is induced by the intraperitoneal (i.p.) administration of dilute acetic acid. 10 milliliters of 0.6% aqueous acetic acid is used per kg of body weight. Writhing is scored during the 15 minutes following acetic acid administration. In a first step, compounds are tested at 3 to 4 increasing doses, given by intravenous route, and at one unique pretreatment time (-5 minutes before acetic acid injection). […] In a second step, this submaximal effective dose for each specific peptide is administered at various pretreatment times (i.e. -5 minutes, -60 minutes, -120 minutes and -180 minutes) prior to the administration of the acetic acid in order to determine the duration of action. Throughout the test, a control group of mice are used which are administered only the vehicle without the candidate peptide. The number of writhes are counted over a 15-minute period, starting from the time of acetic acid injection, and bioactivity, i.e. antinociception, is expressed as a percentage, and is calculated as follows:
100×(writhes in control group-writhes in treated group)/writhes in
Values higher than 100% indicate greater antinociception than at the beginning of the experiment. It is felt that the opioid peptide should be effective to reduce writhing by at least about 25% at a time of 1 hour to be considered to have long duration of in vivo action.
In addition to using this test to determine duration of antinociceptive activity, it is also used to measure the in vivo biopotency (short term) of the peptide. This value is given in the table under the heading WT-ED50 in milligrams per kg of body weight. The value is a measure of the dosage necessary to reduce the number of writhes in the mouse being tested by 50% (as compared to a control mouse) over a period of 15 minutes.

T2 sequence (P41145 whole entry): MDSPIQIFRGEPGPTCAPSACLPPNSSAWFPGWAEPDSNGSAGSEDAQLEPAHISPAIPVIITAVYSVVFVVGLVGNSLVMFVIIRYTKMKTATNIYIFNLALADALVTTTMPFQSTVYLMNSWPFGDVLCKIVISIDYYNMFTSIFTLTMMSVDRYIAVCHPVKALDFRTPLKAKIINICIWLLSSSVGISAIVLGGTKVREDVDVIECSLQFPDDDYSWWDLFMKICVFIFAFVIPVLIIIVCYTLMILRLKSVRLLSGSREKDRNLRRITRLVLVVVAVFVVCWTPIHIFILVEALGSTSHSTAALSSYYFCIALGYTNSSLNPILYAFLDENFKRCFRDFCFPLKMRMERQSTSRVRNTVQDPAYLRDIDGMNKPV
T1 sequence (P35372 whole entry): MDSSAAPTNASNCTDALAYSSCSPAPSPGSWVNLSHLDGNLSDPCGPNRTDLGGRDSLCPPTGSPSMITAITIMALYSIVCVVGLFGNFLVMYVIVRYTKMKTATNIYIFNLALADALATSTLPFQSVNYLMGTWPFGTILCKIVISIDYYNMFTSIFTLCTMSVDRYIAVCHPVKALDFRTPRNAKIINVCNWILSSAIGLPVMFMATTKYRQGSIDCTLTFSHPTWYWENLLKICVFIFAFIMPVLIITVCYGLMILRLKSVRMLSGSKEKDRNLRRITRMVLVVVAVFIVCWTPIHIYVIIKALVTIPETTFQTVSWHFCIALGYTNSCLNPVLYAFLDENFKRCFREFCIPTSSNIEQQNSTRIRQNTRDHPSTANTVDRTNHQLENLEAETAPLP

CCCC[C@@H](NC(=O)[C@@H](Cc1ccccc1)NC(=O)[C@H](N)Cc1ccccc1)C(=O)N[C@H](CCCNC(=N)N)C(=O)NCC [Peptide 1, H-D-Phe-D-Phe-D-Nle-D-Arg-NHEt] (H-[dF][dF][dNle][dR]-NHEt)
Ki [1]: 1890 ± 990 nM
TF-ED50 (mouse; i.v., 52° C. water, central effects): 9.7 mg/kg
BPI (Brain Penetration Index) (mouse; mouse, in vivo, iv): 108
μ/κ Ratio (binding affinity for KOR versus MOR) [2]: 38,000
μ/κ Ratio (binding affinity for KOR versus MOR) ([2]; listed as Peptide No. 1): about 38,000
Ki ([2]; read-out: Ki KOR): ~0.05 nM
WT-ED50 (conscious male ICR mice): 0.09 mg/kg
WT-ED50 (conscious male ICR mice; listed as Peptide No. 1): about 0.09 mg/kg
antinociception after 3 hours (conscious male ICR mice; mouse acetic acid writhing assay, Example 1): over 50%
duration of antinociceptive bioactivity (duration of action) (conscious male ICR mice; result in words): very long duration of action
% Antinociception 1 hr (conscious male ICR mice; submaximal effective dose i.v., 60 min pretreatment, percentage of the activity found at -5 min): 83.9%
% Antinociception 2 hr (conscious male ICR mice; submaximal effective dose i.v., 120 min pretreatment, percentage of the activity found at -5 min): 75.5%
% Antinociception 3 hr (conscious male ICR mice; submaximal effective dose i.v., 180 min pretreatment, percentage of the activity found at -5 min): 61.3%
